Measured values as given in paper PMC9074662, “Discovery of dihydrooxazolo[2,3-a]isoquinoliniums as highly specific inhibitors of hCE2” (RSC Advances, 2019).
Values joined by “and” are separate entries in the source; they are usually repeats but may differ in a detail not shown here. Identical values can stand only once.

Tests used:
hCE1 = biological target: T1, hCE1 (Homo sapiens, UniProt P23141); assay: hCE1 inhibition assay (DME hydrolysis in human liver microsomes); type: biochemical; conditions: DME probe substrate (3 μM), HLM, PBS pH 6.8, 37 °C
T1 construct: tissue Bioreclamation IVT lot no; X008067; host or cells: pooled human liver microsomes, 50 donors
T1 sequence (P23141 18-567): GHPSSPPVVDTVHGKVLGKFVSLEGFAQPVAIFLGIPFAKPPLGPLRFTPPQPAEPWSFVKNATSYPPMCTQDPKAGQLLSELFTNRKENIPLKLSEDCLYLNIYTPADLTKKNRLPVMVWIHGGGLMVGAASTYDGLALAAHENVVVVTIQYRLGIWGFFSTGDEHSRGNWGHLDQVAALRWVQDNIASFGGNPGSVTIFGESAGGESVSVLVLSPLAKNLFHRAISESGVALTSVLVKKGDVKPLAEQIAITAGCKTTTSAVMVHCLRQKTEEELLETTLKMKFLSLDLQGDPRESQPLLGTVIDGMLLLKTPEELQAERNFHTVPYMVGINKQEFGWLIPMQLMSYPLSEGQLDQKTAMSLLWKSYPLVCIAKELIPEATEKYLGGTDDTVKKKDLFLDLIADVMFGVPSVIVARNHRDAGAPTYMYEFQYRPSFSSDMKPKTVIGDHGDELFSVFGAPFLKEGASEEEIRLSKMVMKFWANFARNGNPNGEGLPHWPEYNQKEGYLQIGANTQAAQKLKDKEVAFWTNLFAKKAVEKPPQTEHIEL
From the text: We designed and synthesized more than 30 derivatives of DCZ0358. However, the five-ring quaternary ammonium component of some derivatives was unstable to decompose easily into its hydrolyzate 23b. With 12 stable compounds in hand, we conducted experiments to assay inhibitory activities against both hCE1 and hCE2 using a panel of fluorescent probe substrates.[33–36]D-Luciferin methyl ester (DME) was used as a probe substrate, and nevadensin (a specific hCE1 inhibitor) was used as a positive inhibitor control for hCE1. […] DME was used as a probe substrate for evaluating the inhibitory effects of all DCZ0358 derivatives on hCE1, while nevadensin (a specific hCE1 inhibitor) was used as a positive control.[39] Briefly, 100 μL incubation mixture containing 91 μL PBS (pH 6.8), 2 μL inhibitor at different concentrations and 5 μL HLM (1 μg mL^−1, final concentration), were pre-incubated at 37 °C for 10 min. Subsequently, 2 μL DME (3 μM final concentration, close to the Km value of DME in HLM) was added to initiate the reaction. After incubating for 10 min at 37 °C in a shaking bath, the reaction was stopped by the addition of LDR (100 μL). The microplate reader (SpectraMax® iD3, Molecular Devices, Austria) was used for luminescence measurements. The gain value of luminescence detection was set at 140 volts, and the integration time was set at 1 s. The chemical structure of DME and its hydrolytic metabolite (D-luciferin), as well as the detection conditions for D-luciferin are depicted in Table S1. ^† The negative control incubation (DMSO only) was carried out under the same conditions. The residual activity was calculated using the following formula, the residual activity (%) = (the florescence intensity in the presence of inhibitor)/the florescence intensity in negative control × 100%. The residual activities are show in Fig. S1. ^†

hCE2 = biological target: T2, hCE2 (Homo sapiens, UniProt O00748); assay: hCE2 inhibition assay (FD hydrolysis in human liver microsomes); type: biochemical; conditions: for IC50: FD probe substrate (5 μM), HLM, PBS pH 7.4, 37 °C; for Selectivity IC50(hCE1)/IC50(hCE2): ratio of IC50 values, hCE2 over hCE1 selectivity (fold)
T2 construct: tissue Bioreclamation IVT lot no; X008067; host or cells: pooled human liver microsomes, 50 donors
T2 sequence (O00748 27-559): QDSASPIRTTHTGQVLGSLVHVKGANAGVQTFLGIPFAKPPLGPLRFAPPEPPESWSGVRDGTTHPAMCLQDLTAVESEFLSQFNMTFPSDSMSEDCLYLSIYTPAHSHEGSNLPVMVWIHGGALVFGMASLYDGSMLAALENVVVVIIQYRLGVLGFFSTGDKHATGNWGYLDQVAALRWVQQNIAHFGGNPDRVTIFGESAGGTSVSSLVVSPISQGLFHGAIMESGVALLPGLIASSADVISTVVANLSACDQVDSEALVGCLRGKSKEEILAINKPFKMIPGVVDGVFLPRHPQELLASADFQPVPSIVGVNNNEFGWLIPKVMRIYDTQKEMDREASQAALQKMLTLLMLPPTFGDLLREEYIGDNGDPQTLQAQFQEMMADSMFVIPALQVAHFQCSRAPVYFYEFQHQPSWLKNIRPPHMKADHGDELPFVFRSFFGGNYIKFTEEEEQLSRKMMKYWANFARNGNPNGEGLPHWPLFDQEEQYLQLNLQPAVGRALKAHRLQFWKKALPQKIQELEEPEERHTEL
Procedure: In brief, 200 μL incubation mixture containing 0.1 M PBS (PH = 7.4), human liver microsomes (2 μg mL^−1, final concentration) and each inhibitor. […] After incubating for 30 min at 37 °C in a shaking bath, the reaction was stopped by the addition of acetonitrile (200 μL). The chemical structure of FD and its hydrolytic metabolite (fluorescein), as well as the detection conditions for fluorescein are depicted in Table S1. ^† The negative control incubation (DMSO only) was also carried out under the same conditions.[42] The residual activity was calculated using the formula mentioned above in hCE1 inhibition assay.

intracellular hCE2 = biological target: T3, intracellular hCE2 (Homo sapiens, UniProt O00748); assay: Inhibition of intracellular hCE2 in living HepG2 cells (NCEN hydrolysis, fluorescence imaging); type: cell-based
T3 construct: endogenous in cells; host or cells: HepG2
T3 sequence (O00748 27-559): T2 sequence (O00748 27-559)
Procedure: In view of that hCE2 was an intracellular enzyme, the inhibition potential of 23o was investigated in living HepG2 cells. The HepG2 cells were cultured in Modified Eagle's Medium (MEM) with 5% CO2 and 0.1% antibiotic–antimycoticmix antibiotic at 37 °C, supplemented with 10% fetal bovine serum (FBS) and used NCEN as substrate probe to assay the 23o inhibition potential toward hCE2.
For fluorescence imaging, HepG2 cells were seeded in 96-well plates (8000 cells per well) with complete medium and then incubated for 24 hours. Afterwards, the cells were washed twice with FBS-free culture medium and then preincubated in the medium containing 23o (prepared in FBS-free at various concentrations) for 30 min with 5% CO2 at 37 °C. HepG2 cells were then co-incubated with NCEN (final concentration, 10 μM) for another 50 min to assess the intracellular hCE2 function, respectively. The living cells were imaged and analyzed using an ImageXpress® Micro Confocal High-Content Imaging system (Molecular Devices, Austria).

| SMILES | IC50 (hCE1) [µM] | IC50 (hCE2) [µM] | Selectivity IC50(hCE1)/IC50(hCE2) (hCE2) | Ki (hCE2; Lineweaver-Burk plots, FD substrate, read-out: Ki against hCE2-mediated FD hydrolysis) | Inhibition mode against hCE2-mediated FD hydrolysis (hCE2; inhibition kinetics, FD substrate) | IC50 (intracellular hCE2; HepG2 cells, NCEN 10 μM substrate, read-out: IC50 against intracellular hCE2 in living HepG2 cells) [µM] | Inhibition of intracellular hCE2-mediated NCEN hydrolysis (fluorescence intensity, green channel) (intracellular hCE2; living HepG2 cells, 0-20 μM, NCEN 10 μM, 50 min) |
| --- | --- | --- | --- | --- | --- | --- | --- |
| COc1ccc(-c2cc3ccc(OC)c(OC)c3c3[n+]2C(OC)CO3)cc1OCc1ccc(C(F)(F)F)cc1 (centres unmarked) [Compound 23i, 3,9,10-Trimethoxy-5-(4-methoxy-3-((4-(trifluoromethyl)benzyl)oxy)phenyl)-2,3-dihydrooxazolo[2,3-a]isoquinolin-4-ium] | > 100 | 2.43 ± 0.28 | >41.22 |  |  |  |  |
| COC(=O)c1ccc(COc2cc(-c3cc4ccc(OC)c(OC)c4c4[n+]3C(OC)CO4)ccc2OC)cc1 (centres unmarked) [Compound 23f, 3,9,10-Trimethoxy-5-(4-methoxy-3-((4-(methoxycarbonyl)benzyl)oxy)phenyl)-2,3-dihydrooxazolo[2,3-a]isoquinolin-4-ium] | > 100 | 5.73 ± 0.79 | >17.46 |  |  |  |  |
| COc1ccc(-c2cc3ccc(OC)c(OC)c3c3[n+]2C(OC)CO3)cc1OCc1ccc(S(C)(=O)=O)cc1 (centres unmarked) [Compound 23e, 3,9,10-Trimethoxy-5-(4-methoxy-3-((4-(methylsulfonyl)benzyl)oxy)phenyl)-2,3-dihydrooxazolo[2,3-a]isoquinolin-4-ium] | > 100 | 11.5 ± 1.76 | >8.72 |  |  |  |  |
| COc1ccc(-c2cc3ccc(OC)c(OC)c3c3[n+]2C(OC)CO3)cc1OCc1ccc2cccnc2c1 (centres unmarked) [Compound 23j, 3,9,10-Trimethoxy-5-(4-methoxy-3-(quinolin-7-ylmethoxy)phenyl)-2,3-dihydrooxazolo[2,3-a]isoquinolin-4-ium] | > 100 | 3.77 ± 0.25 | >26.51 |  |  |  |  |
| COc1ccc(-c2cc3ccc(OC)c(OC)c3c3[n+]2C(OC)CO3)cc1OCc1ccc(C(C)(C)C)cc1 (centres unmarked) [Compound 23m, 5-(3-((4-(tert-Butyl)benzyl)oxy)-4-methoxyphenyl)-3,9,10-trimethoxy-2,3-dihydrooxazolo[2,3-a]isoquinolin-4-ium] | > 100 | 2.33 ± 0.2 | >42.81 |  |  |  |  |
| COc1ccc(COc2cc(-c3cc4ccc(OC)c(OC)c4c4[n+]3C(OC)CO4)ccc2OC)cc1 (centres unmarked) [Compound 23d, 3,9,10-trimethoxy-5-(4-methoxy-3-((4-methoxybenzyl)oxy)phenyl)-2,3-dihydrooxazolo[2,3-a]isoquinolin-4-ium] | > 100 | 6.89 | >14.52 |  |  |  |  |
| COc1ccc(-c2cc3ccc(OC)c(OC)c3c3[n+]2C(OC)CO3)cc1OCc1ccc(C)cc1 (centres unmarked) [Compound 23k, 3,9,10-Trimethoxy-5-(4-methoxy-3-((4-methylbenzyl)oxy)phenyl)-2,3-dihydrooxazolo[2,3-a]isoquinolin-4-ium] | > 100 | 5.58 ± 0.94 | >17.94 |  |  |  |  |
| COc1ccc(-c2cc3ccc(OC)c(OC)c3c3[n+]2C(OC)CO3)cc1OCc1ccc(C#N)cc1 (centres unmarked) [Compound 23g, 5-(3-((4-Cyanobenzyl)oxy)-4-methoxyphenyl)-3,9,10-trimethoxy-2,3-dihydrooxazolo[2,3-a]isoquinolin-4-ium] | > 100 | 3.33 ± 0.32 | >30.07 |  |  |  |  |
| COc1cc(COc2cc(-c3cc4ccc(OC)c(OC)c4c4[n+]3C(OC)CO4)ccc2OC)cc(OC)c1 (centres unmarked) [Compound 23o, 5-(3-((3,5-Dimethoxybenzyl)oxy)-4-methoxyphenyl)-3,9,10-trimethoxy-2,3-dihydrooxazolo[2,3-a]isoquinolin-4-ium] | > 100 | 1.19 | >83.89 | 0.84 µM and 0.843 µM | mixed inhibitor | 2.29 | strongly inhibit |

Now from value to compound:

| IC50 (hCE1) [µM] | IC50 (hCE2) [µM] | Selectivity IC50(hCE1)/IC50(hCE2) (hCE2) | Ki (hCE2; Lineweaver-Burk plots, FD substrate, read-out: Ki against hCE2-mediated FD hydrolysis) | Inhibition mode against hCE2-mediated FD hydrolysis (hCE2; inhibition kinetics, FD substrate) | IC50 (intracellular hCE2; HepG2 cells, NCEN 10 μM substrate, read-out: IC50 against intracellular hCE2 in living HepG2 cells) [µM] | Inhibition of intracellular hCE2-mediated NCEN hydrolysis (fluorescence intensity, green channel) (intracellular hCE2; living HepG2 cells, 0-20 μM, NCEN 10 μM, 50 min) | SMILES |
| --- | --- | --- | --- | --- | --- | --- | --- |
| > 100 | 1.66 ± 0.21 | >60.31 |  |  |  |  | COc1ccc(-c2cc3ccc(OC)c(OC)c3c3[n+]2C(OC)CO3)cc1OCc1ccc(C(C)C)cc1 (centres unmarked) [Compound 23n, 5-(3-((4-Isopropylbenzyl)oxy)-4-methoxyphenyl)-3,9,10-trimethoxy-2,3-dihydrooxazolo[2,3-a]isoquinolin-4-ium] |
| > 100 | 2.64 ± 0.45 | >37.89 |  |  |  |  | COc1ccc(-c2cc3ccc(OC)c(OC)c3c3[n+]2C(OC)CO3)cc1OCc1ccc(-c2ccccc2)cc1 (centres unmarked) [Compound 23l, 5-(3-([1,1′-Biphenyl]-4-ylmethoxy)-4-methoxyphenyl)-3,9,10-trimethoxy-2,3-dihydrooxazolo[2,3-a]isoquinolin-4-ium] |
| 2.64 ± 0.22 |  |  |  |  |  |  | COc1ccc(-c2cc(=O)c3c(O)c(OC)c(O)c(OC)c3o2)cc1 [Nevadensin, reference compound] |
| > 100 | 3.32 ± 0.87 | >30.14 |  |  |  |  | COc1ccc(-c2cc3ccc(OC)c(OC)c3c3[n+]2C(OC)CO3)cc1OCc1ccc([N+](=O)[O-])cc1 (centres unmarked) [Compound 23h, 3,9,10-Trimethoxy-5-(4-methoxy-3-((4-nitrobenzyl)oxy)phenyl)-2,3-dihydrooxazolo[2,3-a]isoquinolin-4-ium] |
| 4.04 ± 0.4 | 16 ± 1.49 | >0.25 |  |  |  |  | COc1ccc2cc(-c3ccc4c(c3)OCO4)[n+]3c(c2c1OC)OCC3OC (centres unmarked) [Compound 23a] |
| 36.8 ± 7.7 | 41.7 ± 18.1 | >0.88 |  |  |  |  | COc1ccc2cc(-c3ccc4c(c3)OCO4)n(C(CO)OC)c(=O)c2c1OC (centres unmarked) [Compound 23b] |
